Reference: US11285127B2, “Compositions and methods for lowering triglycerides without raising LDL-C levels in a subject on concomitant statin therapy” (Amarin Pharmaceuticals Ireland Limited, priority 2013, dated 2022)

System: patients with fasting triglyceride levels >200 mg/dl and <500 mg/dl despite statin therapy
Assay: 12-week study: lipoprotein particle size (VLDL, LDL, HDL; nuclear magnetic resonance)
Type: in vivo, human
Details: for LDL Particle Size, Week 12 EP Median (IQR): MITT; for LDL Particle Size, Percent change from Baseline, Median (IQR) / LDL Particle Size, Difference from placebo, Estimated median: Week 12, MITT; for LDL Particle Size, Difference from placebo, Estimated median: difference in percent change
From the text: Parameters (a)-(z) can be measured in accordance with any clinically acceptable methodology. For example, triglycerides, total cholesterol, HDL-C and fasting blood sugar can be sample from serum and analyzed using standard photometry techniques. VLDL-TG, LDL-C and VLDL-C can be calculated or determined using serum lipoprotein fractionation by preparative ultracentrifugation and subsequent quantitative analysis by refractometry or by analytic ultracentrifugal methodology. Apo A1, Apo B and hsCRP can be determined from serum using standard nephelometry techniques. Lipoprotein (a) can be determined from serum using standard turbidimetric immunoassay techniques. LDL particle number and particle size can be determined using nuclear magnetic resonance (NMR) spectrometry. Remnants lipoproteins and LDL-phospholipase A2 can be determined from EDTA plasma or serum and serum, respectively, using enzymatic immunoseparation techniques. Oxidized LDL, intercellular adhesion molecule-1 and interleukin-2 levels can be determined from serum using standard enzyme immunoassay techniques. These techniques are described in detail in standard textbooks, for example Tietz Fundamentals of Clinical Chemistry, 6th Ed. (Burtis, Ashwood and Borter Eds.), WB Saunders Company.
A multi-center, placebo-controlled, randomized, double-blind, 12-week study was performed to evaluate the efficacy and safety of >96% E-EPA in patients with fasting triglyceride levels >200 mg/dl and <500 mg/dl despite statin therapy (the mean of two qualifying entry values needed to be >185 mg/dl and at least one of the values needed to be >200 mg/dl). The primary objective of the study was to determine the efficacy of >96% E-EPA 2 g daily and 4 g daily, compared to placebo, in lowering fasting TG levels in patients with high risk for cardiovascular disease and with fasting TG levels 200 mg/dl and <500 mg/dl, despite treatment to LDL-C goal on statin therapy.
The secondary objectives of this study were the following: • 1. To determine the safety and tolerability of >96% E-EPA 2 g daily and 4 g daily; • 2. To determine the effect of >96% E-EPA on lipid and apolipoprotein profiles including total cholesterol (TC), non-high-density lipoprotein cholesterol (non-HDL-C), low density lipoprotein cholesterol (LDL-C), high density lipoprotein cholesterol (HDL-C), and […]; • 3. To determine the effect of >96% E-EPA on lipoprotein associated phospholipase A2 (Lp-PLA2) from baseline to week 12; • 4. To determine the effect of >96% E-EPA on low-density lipoprotein (LDL) particle number and size; • 5. To determine the effect of >96% E-EPA on oxidized LDL; • 6. To determine the effect of >96% E-EPA on fasting plasma glucose (FPG) and hemoglobin A1c (HbA1c); • 7. To determine the effect of >96% E-EPA on insulin resistance; • 8. To determine the effect of >96% E-EPA on high-sensitivity C-reactive protein (hsCRP); • 9. To determine the effects of >96% E-EPA 2 g daily and 4 g daily on the incorporation of fatty acids into red blood cell membranes and into plasma phospholipids; • 10. To explore the relationship between baseline fasting TG levels and the reduction in fasting TG levels; and • 11. To explore the relationship between changes of fatty acid concentrations in plasma and red blood cell membranes, and the reduction in fasting TG levels.
The primary efficacy variable for the double-blind treatment period was percent change in TG from baseline to Week 12 endpoint. […]

[1] = 2 g/day E-EPA (n = 221), 12 weeks
[2] = 2 g/day E-EPA (n = 222), 12 weeks
[3] = 2 g/day, 12 weeks, Hodges-Lehmann median
[4] = 4 g/day E-EPA (n = 215), 12 weeks
[5] = 4 g/day E-EPA (n = 216), 12 weeks
[6] = 4 g/day, 12 weeks, Hodges-Lehmann median, listed as E-EPA
[7] = IPE 4 g/day (n = 215), 12 weeks
[8] = IPE 4 g/day (n = 216), 12 weeks
[9] = IPE 4 g/day vs placebo, 12 weeks, Hodges-Lehmann median

For CC/C=C\C/C=C\C/C=C\C/C=C\C/C=C\CCCC(=O)OCC [AMR101, ethyl eicosapentaenoate], the “LDL particle size, % Δ from baseline (median)” value [1] was “+0.5%”, the “LDL particle size, End (median)” value [1] was 20.0 nm and the “HDL particle size, % Δ from baseline (median)” value [2] was 0.0%. For the same compound, the “HDL particle size, End (median)” value [2] was 8.6 nm, the “VLDL particle size, % Δ from baseline (median)” value [2] was −5.0% and the “VLDL particle size, End (median)” value [2] was 53.2 nm. The “HDL particle size, Placebo-Adjusted Median Change from Baseline, 2 g/d” value [3] was 0.0%, the “LDL particle size, Placebo-Adjusted Median Change from Baseline, 2 g/d” value [3] was “+0.5%” and the “VLDL particle size, Placebo-Adjusted Median Change from Baseline, 2 g/d” value [3] was −4.8%. The “LDL particle size, % Δ from baseline (median)” value [4] was “+0.5%”, the “LDL particle size, End (median)” value [4] was 20.0 nm and the “HDL particle size, % Δ from baseline (median)” value [5] was −1.1%. For the same compound, the “HDL particle size, End (median)” value [5] was 8.6 nm, the “VLDL particle size, % Δ from baseline (median)” value [5] was −8.1% and the “VLDL particle size, End (median)” value [5] was 51.2 nm. For the same compound, the “HDL particle size, Placebo-Adjusted Median Change from Baseline, 4 g/d” value [6] was −1.2%, the “LDL particle size, Placebo-Adjusted Median Change from Baseline, 4 g/d” value [6] was “+0.5%” and the “VLDL particle size, Placebo-Adjusted Median Change from Baseline, 4 g/d” value [6] was −7.7%. For the same compound, the “LDL Particle Size, Week 12 EP Median (IQR)” value (AMR101 2g/d + statin, n 221) was 20.0 (0.6) nm, the “LDL Particle Size, Percent change from Baseline, Median (IQR)” value (AMR101 2g/d + statin) was 0.5 (2.5) % and the LDL Particle Size, Difference from placebo, Estimated median (AMR101 2g/d + statin) was 0.5%. For the same compound, the “LDL Particle Size, Week 12 EP Median (IQR)” value (AMR101 4g/d + statin, n 215) was 20.0 (0.6) nm, the “LDL Particle Size, Percent change from Baseline, Median (IQR)” value (AMR101 4g/d + statin) was 0.5 (2.5) % and the LDL Particle Size, Difference from placebo, Estimated median (AMR101 4g/d + statin) was 0.5%. For the same compound, the “LDL particle size, Change From Baseline, % (median)” value [7] was 0.5%, the “LDL particle size, End of Treatment (median)” value [7] was 20.0 nm and the “HDL particle size, Change From Baseline, % (median)” value [8] was −1.1%. For the same compound, the “HDL particle size, End of Treatment (median)” value [8] was 8.6 nm, the “VLDL particle size, Change From Baseline, % (median)” value [8] was −8.1% and the “VLDL particle size, End of Treatment (median)” value [8] was 51.2 nm. The “HDL particle size, Median Change From Baseline IPE 4 g/day vs Placebo, %” value [9] was −1.2%, the “LDL particle size, Median Change From Baseline IPE 4 g/day vs Placebo, %” value [9] was 0.5% and the “VLDL particle size, Median Change From Baseline IPE 4 g/day vs Placebo, %” value [9] was −7.7%.
